In patent US11352340B2, “Pyridine and pyridimine compounds as PI3K-gamma inhibitors” (Incyte Corporation, priority 2016, dated 2022):
Where a name gives a salt, the structure may show the parent alone.

Legend:
[1] = test system: Phosphorylated Ribosomal Protein S6 (RPS6) in THP-1 cells; assay: THP-1 RPS6 ELISA Assay; type: cell-based, Human; conditions: Homo sapiens, MCP-1 stimulated, phospho-RPS6 ELISA, read-out: THP p-RPS6 ELISA IC50
Experimental: Example A. THP-1 RPS6 ELISA Assay
To measure the Phosphorylated Ribosomal Protein S6 (RPS6) in cell lysates, THP-1 cells (Human Acute Monocytic Leukemia) are purchased from ATCC (Manassas, Va.) and maintained in RPMI with 10% FBS (Gibco/Life Technologies, Carlsbad, Calif.). For the assay, THP-1 cells are serum starved overnight in RPMI, then plated in RPMI (2×10^5 cells/well in 90 μL) into 96-well flat-bottom tissue culture treated plates (Corning, Corning, N.Y.), in the presence or absence of a concentration range of test compounds. Covered plates are incubated for 2 hours at 37° C., 5% CO2 then treated with or without 10 nM MCP-1 (MYBioSource, San Diego, Calif.) for 15 minutes at 37° C., 5% CO2. Plates are centrifuged at 1600 RPM and supernatants are removed. Cells are lysed in Lysis Buffer (Cell Signaling, Danvers, Mass.) with Protease Inhibitor (Calbiochem/EMD, Germany), PMSF (Sigma, St Louis Mo.), HALTS (Thermo Fisher, Rockford, Ill.) for 30 min on wet ice. Cell lysates are frozen at −80° C. before testing. The lysates are tested in the Human/Mouse/Rat Phospho-RPS6 ELISA (R&D Systems, Inc. Minn, Minn.). The plate is measured using a microplate reader (SpectraMax M5—Molecular Devices, LLC Sunnyvale, Calif.) set to 450 nm with a wavelength correction of 540. IC50 determination is performed by fitting the curve of inhibitor percent inhibition versus the log of the inhibitor concentration using the GraphPad Prism 5.0 software.

[2] = target: PI3Kγ (p110γ) Recombinant Human Protein (Homo sapiens (Human), UniProt P48736); assay: PI3K-γ Scintillation Proximity Assay; type: biochemical; conditions: read-out: PI3K-gamma SPA IC50
Summary of the method: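 Recombinant human p110γ (13 nM) with 20 μM PIP2 and 2 μM ATP plus 0.5 μCi [γ-33P]ATP in 20 mM MOPS pH 6.7, 10 mM MgCl2, 5 mM DTT, 0.03% CHAPS, 2% DMSO, 120 min at room temperature. Product captured on WGA SPA beads and counted; IC50 fitted from % of solvent control versus log concentration.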

[3] = target: PI3Kδ (p110δ/p85α) Recombinant Human Protein (Homo sapiens (Human), UniProt O00329); assay: PI3Kδ Scintillation Proximity Assay; type: biochemical; conditions: read-out: PI3K-delta SPA IC50
Summary of the method: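 Recombinant human p110δ/p85α (3.4 nM) phosphorylates 20 μM di-octanoyl PIP2 using 2 μM ATP spiked with [γ-33P]ATP, 120 min, room temperature, pH 6.7, 2% DMSO. Product measured by scintillation proximity; IC50 from dose-response fit.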

PI3Kγ (p110γ) Recombinant Human Protein, sequence (P48736 whole entry): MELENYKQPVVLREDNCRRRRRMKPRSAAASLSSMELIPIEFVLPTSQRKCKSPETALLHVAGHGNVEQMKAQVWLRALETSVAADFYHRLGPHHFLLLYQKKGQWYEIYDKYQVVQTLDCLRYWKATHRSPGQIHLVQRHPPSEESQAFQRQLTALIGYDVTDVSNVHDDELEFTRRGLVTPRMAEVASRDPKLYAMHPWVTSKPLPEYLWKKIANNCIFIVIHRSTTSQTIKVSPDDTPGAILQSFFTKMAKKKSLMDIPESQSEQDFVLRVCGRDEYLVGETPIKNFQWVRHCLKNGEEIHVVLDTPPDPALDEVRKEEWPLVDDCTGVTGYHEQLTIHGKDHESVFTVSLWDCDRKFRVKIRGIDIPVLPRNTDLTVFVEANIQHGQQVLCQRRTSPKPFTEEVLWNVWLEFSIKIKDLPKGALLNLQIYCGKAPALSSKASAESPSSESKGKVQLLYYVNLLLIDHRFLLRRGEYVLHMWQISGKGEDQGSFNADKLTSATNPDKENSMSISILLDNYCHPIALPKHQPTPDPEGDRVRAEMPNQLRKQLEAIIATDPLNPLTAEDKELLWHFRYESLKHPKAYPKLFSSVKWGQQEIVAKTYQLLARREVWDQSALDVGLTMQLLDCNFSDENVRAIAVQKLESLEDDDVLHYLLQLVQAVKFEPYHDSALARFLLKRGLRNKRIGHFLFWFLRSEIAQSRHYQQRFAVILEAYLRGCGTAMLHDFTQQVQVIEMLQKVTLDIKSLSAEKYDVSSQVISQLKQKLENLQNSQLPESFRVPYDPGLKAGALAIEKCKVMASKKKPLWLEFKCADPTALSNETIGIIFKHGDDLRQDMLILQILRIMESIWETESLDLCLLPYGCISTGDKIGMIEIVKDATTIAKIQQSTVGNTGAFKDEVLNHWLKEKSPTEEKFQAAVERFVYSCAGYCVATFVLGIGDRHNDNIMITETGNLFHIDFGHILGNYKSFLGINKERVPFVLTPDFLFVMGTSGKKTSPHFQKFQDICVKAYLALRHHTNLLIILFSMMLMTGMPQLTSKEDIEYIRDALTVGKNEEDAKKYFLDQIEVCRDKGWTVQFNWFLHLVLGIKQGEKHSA
PI3Kδ (p110δ/p85α) Recombinant Human Protein, sequence (O00329 whole entry): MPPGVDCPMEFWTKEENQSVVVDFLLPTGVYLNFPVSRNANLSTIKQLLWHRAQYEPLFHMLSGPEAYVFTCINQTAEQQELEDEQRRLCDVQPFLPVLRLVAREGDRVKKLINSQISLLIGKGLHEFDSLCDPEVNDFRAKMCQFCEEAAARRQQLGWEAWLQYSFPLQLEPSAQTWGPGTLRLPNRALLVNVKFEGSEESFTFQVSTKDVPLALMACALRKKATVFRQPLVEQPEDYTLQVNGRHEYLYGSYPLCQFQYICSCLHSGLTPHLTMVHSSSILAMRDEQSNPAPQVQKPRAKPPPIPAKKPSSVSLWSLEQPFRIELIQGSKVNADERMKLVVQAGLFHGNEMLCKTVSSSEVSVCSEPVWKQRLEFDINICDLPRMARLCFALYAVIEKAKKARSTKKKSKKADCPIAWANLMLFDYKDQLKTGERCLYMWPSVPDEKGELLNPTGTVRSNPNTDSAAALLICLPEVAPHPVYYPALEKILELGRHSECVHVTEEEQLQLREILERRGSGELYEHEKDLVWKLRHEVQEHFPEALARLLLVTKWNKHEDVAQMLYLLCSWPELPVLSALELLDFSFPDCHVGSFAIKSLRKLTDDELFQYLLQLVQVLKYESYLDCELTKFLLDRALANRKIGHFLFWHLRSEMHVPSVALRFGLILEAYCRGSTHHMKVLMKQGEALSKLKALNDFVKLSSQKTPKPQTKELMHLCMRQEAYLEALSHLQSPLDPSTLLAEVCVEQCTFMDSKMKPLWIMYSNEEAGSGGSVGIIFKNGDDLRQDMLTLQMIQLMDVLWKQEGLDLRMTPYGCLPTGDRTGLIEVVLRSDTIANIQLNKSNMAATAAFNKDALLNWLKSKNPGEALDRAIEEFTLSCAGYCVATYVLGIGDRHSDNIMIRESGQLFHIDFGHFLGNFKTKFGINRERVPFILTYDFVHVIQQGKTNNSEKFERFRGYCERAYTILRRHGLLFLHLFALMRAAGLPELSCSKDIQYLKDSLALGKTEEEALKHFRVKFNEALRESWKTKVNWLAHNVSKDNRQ
PI3Kδ (p110δ/p85α) Recombinant Human Protein, sequence (P27986 whole entry partner): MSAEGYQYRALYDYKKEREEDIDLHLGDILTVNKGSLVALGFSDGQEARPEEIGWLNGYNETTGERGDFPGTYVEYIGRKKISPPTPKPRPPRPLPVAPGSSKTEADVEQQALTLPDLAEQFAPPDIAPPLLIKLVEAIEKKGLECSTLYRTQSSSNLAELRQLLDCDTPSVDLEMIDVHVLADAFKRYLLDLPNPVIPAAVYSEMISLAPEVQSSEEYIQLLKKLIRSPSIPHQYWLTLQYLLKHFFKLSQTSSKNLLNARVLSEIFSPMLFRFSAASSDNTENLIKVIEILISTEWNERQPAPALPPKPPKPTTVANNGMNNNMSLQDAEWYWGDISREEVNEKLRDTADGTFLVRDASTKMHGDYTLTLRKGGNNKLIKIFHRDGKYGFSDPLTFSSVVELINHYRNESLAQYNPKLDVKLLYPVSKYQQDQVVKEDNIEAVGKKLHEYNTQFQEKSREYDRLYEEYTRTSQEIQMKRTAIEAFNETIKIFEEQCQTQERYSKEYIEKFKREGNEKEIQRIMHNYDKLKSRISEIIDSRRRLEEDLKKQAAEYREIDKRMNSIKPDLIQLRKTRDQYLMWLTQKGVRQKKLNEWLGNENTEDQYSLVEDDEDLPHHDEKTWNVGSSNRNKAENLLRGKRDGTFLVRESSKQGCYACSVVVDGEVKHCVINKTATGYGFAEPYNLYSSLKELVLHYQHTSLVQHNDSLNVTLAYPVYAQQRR

CCc1cnc(-c2cc(-c3cncc(OC)c3)ccn2)[nH]1 [Example 85, 2′-(5-Ethyl-1H-imidazol-2-yl)-5-methoxy-3,4′-bipyridine trifluoroacetate salt]
IC50 [1]: > 5000 nM | IC50 [2]: ≤ 500 nM | IC50 [3]: > 500 nM

COc1cncc(-c2ccnc(-c3ncc(C4CC4)[nH]3)c2)c1 [Example 86, 2′-(5-Cyclopropyl-1H-imidazol-2-yl)-5-methoxy-3,4′-bipyridine]
IC50 [1]: 300 to 1000 nM | IC50 [2]: ≤ 50 nM | IC50 [3]: ≤ 500 nM

COc1cncc(-c2ccnc(-c3ncc(-c4ccccn4)[nH]3)c2)c1 [Example 87, 5-Methoxy-2′-(5-(pyridin-2-yl)-1H-imidazol-2-yl)-3,4′-bipyridine trifluoroacetate salt]
IC50 [1]: > 5000 nM | IC50 [2]: ≤ 100 nM | IC50 [3]: ≤ 50 nM

COc1cncc(-c2ccnc(-c3ncc(C(C)(C)C)[nH]3)c2)c1 [Example 88, 2′-(5-tert-Butyl-1H-imidazol-2-yl)-5-methoxy-3,4′-bipyridine trifluoroacetate salt]
IC50 [1]: > 5000 nM | IC50 [2]: ≤ 500 nM | IC50 [3]: ≤ 50 nM

COc1cncc(-c2ccnc(-c3nc4ccccc4[nH]3)n2)c1 [Example 94, 2-[4-(5-Methoxypyridin-3-yl)pyrimidin-2-yl]-1H-benzimidazole Trifluoroacetate Salt]
IC50 [1]: 1000 to 5000 nM | IC50 [2]: ≤ 500 nM | IC50 [3]: > 500 nM

Cc1cnc(-c2cc(-c3cncc(N4CCOCC4)c3)ccn2)[nH]1 [Example 97, 2′-(5-Methyl-1H-imidazol-2-yl)-5-morpholin-4-yl-3,4′-bipyridine]
IC50 [1]: 300 to 1000 nM | IC50 [2]: ≤ 50 nM | IC50 [3]: ≤ 500 nM

Cc1nc(-c2cc(-c3cncc(N4CCOCC4)c3)ccn2)[nH]c1C [Example 98, 4-(2′-(4,5-Dimethyl-1H-imidazol-2-yl)-3,4′-bipyridin-5-yl)morpholine trifluoroacetate salt]
IC50 [1]: ≤ 300 nM | IC50 [2]: ≤ 100 nM | IC50 [3]: ≤ 100 nM

FC(F)(F)c1cnc(-c2cc(-c3cncc(N4CCOCC4)c3)ccn2)[nH]1 [Example 99, 4-(2′-(5-(Trifluoromethyl)-1H-imidazol-2-yl)-3,4′-bipyridin-5-yl)morpholine trifluoroacetate salt]
IC50 [1]: > 5000 nM | IC50 [2]: ≤ 50 nM | IC50 [3]: ≤ 500 nM

c1cc(-c2cncc(N3CCOCC3)c2)cc(-c2ncc(C3CC3)[nH]2)n1 [Example 102, 4-(2′-(5-Cyclopropyl-1H-imidazol-2-yl)-3,4′-bipyridin-5-yl)morpholine trifluoroacetate salt]
IC50 [1]: 300 to 1000 nM | IC50 [2]: ≤ 100 nM | IC50 [3]: ≤ 50 nM

c1cc(-c2cncc(N3CCOCC3)c2)cc(-c2ncc(C3CCC3)[nH]2)n1 [Example 103, 4-(2′-(5-Cyclobutyl-1H-imidazol-2-yl)-3,4′-bipyridin-5-yl)morpholine trifluoroacetate salt]
IC50 [1]: 1000 to 5000 nM | IC50 [2]: ≤ 100 nM | IC50 [3]: ≤ 50 nM

Cc1nc(-c2cc(-c3cncc(N4CCOCC4)c3)ccn2)[nH]c1C1CC1 [Example 104, 4-(2′-(5-Cyclopropyl-4-methyl-1H-imidazol-2-yl)-3,4′-bipyridin-5-yl)morpholine trifluoroacetate salt]
IC50 [1]: ≤ 300 nM | IC50 [2]: ≤ 50 nM | IC50 [3]: ≤ 50 nM

CCc1[nH]c(-c2cc(-c3cncc(N4CCOCC4)c3)ccn2)nc1C [Example 105, 4-(2′-(5-Ethyl-4-methyl-1H-imidazol-2-yl)-3,4′-bipyridin-5-yl)morpholine]
IC50 [1]: ≤ 300 nM | IC50 [2]: ≤ 100 nM | IC50 [3]: ≤ 100 nM

CS(=O)(=O)c1cncc(-c2ccnc(-c3ncc(C4CCCCC4)[nH]3)c2)c1 [Example 106, 2′-(5-Cyclohexyl-1H-imidazol-2-yl)-5-(methylsulfonyl)-3,4′-bipyridine Trifluoroacetate Salt]
IC50 [1]: ≤ 300 nM | IC50 [2]: ≤ 50 nM | IC50 [3]: ≤ 50 nM

Cc1cnc(-c2cc(-c3cncc(S(C)(=O)=O)c3)ccn2)[nH]1 [Example 107, 2′-(5-Methyl-1H-imidazol-2-yl)-5-(methylsulfonyl)-3,4′-bipyridine trifluoroacetate salt]
IC50 [1]: ≤ 300 nM | IC50 [2]: ≤ 100 nM | IC50 [3]: ≤ 100 nM

Cc1nc(-c2cc(-c3cncc(S(C)(=O)=O)c3)ccn2)[nH]c1C [Example 108, 2′-(4,5-Dimethyl-1H-imidazol-2-yl)-5-(methylsulfonyl)-3,4′-bipyridine trifluoroacetate salt]
IC50 [1]: ≤ 300 nM | IC50 [2]: ≤ 50 nM | IC50 [3]: ≤ 50 nM

CS(=O)(=O)c1cncc(-c2ccnc(-c3ncc(C(F)(F)F)[nH]3)c2)c1 [Example 109, 5-(Methylsulfonyl)-2′-(5-(trifluoromethyl)-1H-imidazol-2-yl)-3,4′-bipyridine trifluoroacetate salt]
IC50 [1]: 300 to 1000 nM | IC50 [2]: ≤ 50 nM | IC50 [3]: ≤ 50 nM

CCc1cnc(-c2cc(-c3cncc(S(C)(=O)=O)c3)ccn2)[nH]1 [Example 110, 2′-(5-Ethyl-1H-imidazol-2-yl)-5-(methylsulfonyl)-3,4′-bipyridine trifluoroacetate salt]
IC50 [1]: 300 to 1000 nM | IC50 [2]: ≤ 50 nM | IC50 [3]: ≤ 50 nM

CC(C)c1cnc(-c2cc(-c3cncc(S(C)(=O)=O)c3)ccn2)[nH]1 [Example 111, 2′-(5-Isopropyl-1H-imidazol-2-yl)-5-(methylsulfonyl)-3,4′-bipyridine trifluoroacetate salt]
IC50 [1]: 300 to 1000 nM | IC50 [2]: ≤ 50 nM | IC50 [3]: ≤ 50 nM

CS(=O)(=O)c1cncc(-c2ccnc(-c3ncc(C4CC4)[nH]3)c2)c1 [Example 112, 2′-(5-Cyclopropyl-1H-imidazol-2-yl)-5-(methylsulfonyl)-3,4′-bipyridine trifluoroacetate salt]
IC50 [1]: 300 to 1000 nM | IC50 [2]: ≤ 50 nM | IC50 [3]: ≤ 50 nM

CS(=O)(=O)c1cncc(-c2ccnc(-c3ncc(C4CCC4)[nH]3)c2)c1 [Example 113, 2′-(5-Cyclobutyl-1H-imidazol-2-yl)-5-(methylsulfonyl)-3,4′-bipyridine trifluoroacetate salt]
IC50 [1]: ≤ 300 nM | IC50 [2]: ≤ 50 nM | IC50 [3]: ≤ 50 nM

CS(=O)(=O)c1cncc(-c2ccnc(-c3ncc(C4CCCC4)[nH]3)c2)c1 [Example 114, 2′-(5-Cyclopentyl-1H-imidazol-2-yl)-5-(methylsulfonyl)-3,4′-bipyridine trifluoroacetate salt]
IC50 [1]: ≤ 300 nM | IC50 [2]: ≤ 50 nM | IC50 [3]: ≤ 50 nM

CS(=O)(=O)c1cncc(-c2ccnc(-c3ncc(Cc4ccccc4)[nH]3)c2)c1 [Example 115, 2′-(5-Benzyl-1H-imidazol-2-yl)-5-(methylsulfonyl)-3,4′-bipyridine trifluoroacetate salt]
IC50 [1]: ≤ 300 nM | IC50 [2]: ≤ 50 nM | IC50 [3]: ≤ 50 nM

Cc1nc(-c2cc(-c3cncc(S(C)(=O)=O)c3)ccn2)[nH]c1C1CC1 [Example 116, 2′-(5-Cyclopropyl-4-methyl-1H-imidazol-2-yl)-5-(methylsulfonyl)-3,4′-bipyridine trifluoroacetate salt]
IC50 [1]: ≤ 300 nM | IC50 [2]: ≤ 50 nM | IC50 [3]: ≤ 50 nM

CCc1[nH]c(-c2cc(-c3cncc(S(C)(=O)=O)c3)ccn2)nc1C [Example 117, 2′-(5-Ethyl-4-methyl-1H-imidazol-2-yl)-5-(methylsulfonyl)-3,4′-bipyridine]
IC50 [1]: ≤ 300 nM | IC50 [2]: ≤ 50 nM | IC50 [3]: ≤ 50 nM

CS(=O)(=O)c1cncc(-c2ccnc(-c3ncc(-c4ccccn4)[nH]3)c2)c1 [Example 118, 5-(Methylsulfonyl)-2′-(5-(pyridin-2-yl)-1H-imidazol-2-yl)-3,4′-bipyridine]
IC50 [1]: 300 to 1000 nM | IC50 [2]: ≤ 50 nM | IC50 [3]: ≤ 50 nM

Cc1[nH]c(-c2cc(-c3cncc(S(C)(=O)=O)c3)ccn2)nc1C(=O)O [Example 119, 5-Methyl-2-(5-(methylsulfonyl)-3,4′-bipyridin-2′-yl)-1H-imidazole-4-carboxylic acid trifluoroacetate salt]
IC50 [1]: > 5000 nM | IC50 [2]: ≤ 50 nM | IC50 [3]: > 500 nM

CS(=O)(=O)c1cncc(-c2ccnc(-c3nc(C4CCCCC4)c(N)[nH]3)c2)c1 [Example 120, 4-Cyclohexyl-2-[5-(methylsulfonyl)-3,4′-bipyridin-2′-yl]-1H-imidazol-5-amine Trifluoroacetate Salt]
IC50 [1]: > 5000 nM | IC50 [2]: ≤ 100 nM | IC50 [3]: ≤ 50 nM
